Data as given in patent publication US20250144172A1, “ANTI-FIBROTIC SIALIDASE INHIBITOR COMPOUNDS AND METHODS OF USE” (The Texas A&M University System, priority 2016, published 2025).

Legend:
human PBMC [1] = assay: fibrocyte formation in human PBMC, serum-free medium; format: cell-based; conditions: 5 days; for fibrocyte formation / differentiation: 100 ng/ml sialidase, 10 μg/ml DANA or 1 μg/ml SAP
Protocol: Human peripheral blood was collected from healthy adult volunteers who gave written consent and with specific approval from the Texas A&M University human subjects Institutional Review Board. Peripheral blood mononuclear cells (PBMC) were isolated from blood using Ficoll-Paque Plus (GE Healthcare Biosciences, Piscataway, NJ). Human PBMC were incubated in serum-free medium (FibroLife basal media (LM-0001, Lifeline Cell Technology, Walkersville, MD), supplemented with 10 mM HEPES (Sigma-Aldrich, St. Louis, MO), 1x non-essential amino acids (Sigma-Aldrich), 1 mM sodium pyruvate (Sigma-Aldrich), 2 mM glutamine (Invitrogen, Carlsbad, CA), 100 U/ml penicillin, 100 μg/ml streptomycin (Sigma-Aldrich), and 1x ITS-3 (Sigma-Aldrich) in the presence of absence of 100 ng/ml recombinant human sialidases (Origene, Rockville MD), 10 μg/ml DANA (Calbiochem, San Diego, CA), or 1 μg/ml human SAP (Calbiochem). After 5 days, fibrocytes were counted, and results are presented in FIG. 5.

human NEU3 = human NEU3 (Homo sapiens (Human), UniProt Q9UQ49); assay: human NEU3 sialidase inhibition; conditions: read-out: NEU3 IC50; human NEU3
Sequence of human NEU3 (Q9UQ49 whole entry): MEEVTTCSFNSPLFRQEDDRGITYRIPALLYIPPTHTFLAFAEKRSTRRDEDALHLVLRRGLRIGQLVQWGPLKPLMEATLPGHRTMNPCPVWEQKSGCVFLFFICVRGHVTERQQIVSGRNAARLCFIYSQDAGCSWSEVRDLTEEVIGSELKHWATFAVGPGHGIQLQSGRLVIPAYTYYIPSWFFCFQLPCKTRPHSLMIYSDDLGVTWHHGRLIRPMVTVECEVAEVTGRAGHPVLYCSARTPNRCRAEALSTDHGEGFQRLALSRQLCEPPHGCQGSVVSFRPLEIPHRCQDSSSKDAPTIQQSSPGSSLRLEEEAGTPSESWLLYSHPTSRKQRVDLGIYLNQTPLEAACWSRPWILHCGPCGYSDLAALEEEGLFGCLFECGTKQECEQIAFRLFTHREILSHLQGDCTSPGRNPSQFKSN
Excerpt: Enzymatic activity may be defined as inhibited if the rate measured by the Michaelis-Menten equation in an in vitro assay using a substrate with a terminal sialic acid is inhibited by at least 50%. More specifically, a human sialidase inhibitor may be a compound that inhibits the rate of at least one human sialidase by at least 50% as measured by the Michaelis-Menten equation in an in vitro assay using the fluorometric substrate 4MU-NANA [2′-(4-Methylumbelliferyl)-α-D-N-acetylneuraminic acid.
In general, sialidase activity, including human sialidase activity, may be assessed at 37° C. in the presence of buffers ranging in pH from 3.7 to 7.4. […] Bovine serum albumin (BSA) is added to the buffer at a concentration of 100 ug/ml. Sialidase at a final concentration of 300 ng/ml is then added to the buffer. A sialidase inhibitor is then added to the mixture at a series of final concentrations. The reaction mixture is incubated for 30 minutes to allow the inhibitor to bind the sialidase. The fluorometric substrate 4MU-NANA [2′-(4-Methylumbelliferyl)-α-D-N-acetylneuraminic acid sodium salt hydrate is then added at a final concentration of 200 μM. […] The total volume of each reaction mixture is 0.1 ml. The cleavage of 4MU-NANA is then monitored by fluorescence every 20 minutes for 5 hours with excitation light at 360 nm and the fluorescence emission at 460 nm.

[2] = system: mice with bleomycin-induced fibrosis; assay: mouse bleomycin model of pulmonary fibrosis; format: in vivo; conditions: day 21
Protocol: The successful aspiration of bleomycin into the lungs was confirmed by listening for a crackling noise heard after the aspiration. Mice were weighed daily, and euthanized using CO2 following NIH guidelines at day 21 after bleomycin aspiration. The experiment was performed in accordance with the recommendations in the Guide for the Care and Use of Laboratory Animals of the National Institutes of Health. The Texas A&M University Animal Use and Care Committee approved the protocol.
The BALs were clarified by centrifugation at 500×g for 10 minutes, and the supernatants were transferred to Eppendorf tubes. The supernatants were flash frozen with liquid nitrogen, and stored at −20° C. until further use.
After collection of BAL fluid, mouse lungs were inflated with prewarmed Optimal Cutting Temperature (OCT) embedding medium (VWR, Radnor, PA) and then embedded in OCT, frozen on dry ice, and then stored at −80° C. 6-micron cryosections of mouse lungs were mounted on Superfrost Plus® microscope slides (VWR). The sections on the slides were allowed to air-dry for 24-48 hours. The slides were then fixed in acetone at room temperature for 20 minutes and air-dried for 10 minutes.
Then, starting 24 hours after bleomycin had been administered, the mice were given daily intraperitoneal injections of 10 mg/kg DANA (Calbiochem) in PBS or 10 mg/kg oseltamivir (Sigma) in PBS. Both inhibitors are quite polar and thus probably remain in the extracellular space. Assuming 2 ml of extracellular space in a 20 gram mouse, these doses would then be ˜3 μM. At day 21, mice were sacrificed and BAL and cryosections of lungs were obtained as described for Example 3. The experiment was performed in accordance with the recommendations in the Guide for the Care and Use of Laboratory Animals of the National Institutes of Health. The Texas A&M University Animal Use and Care Committee approved the protocol.
Treatment of mice with oropharyngeal bleomycin results in an initial inflammation, and then a fibrosis that has begun by day 10 after bleomycin treatment. To determine if sialidase inhibitors decrease fibrosis when treatment starts after the initial inflammation stage and when fibrosis is present, mice were treated with oropharyngeal bleomycin to induce symptoms of pulmonary fibrosis as described above. Then, starting 10 days after bleomycin had been administered, the mice were given daily intraperitoneal injections of 10 mg/kg DANA (Calbiochem) in PBS or 10 mg/kg oseltamivir (Sigma) in PBS. At day 21, mice were sacrificed and BAL and cryosections of lungs were obtained as described above. The experiment was performed in accordance with the recommendations in the Guide for the Care and Use of Laboratory Animals of the National Institutes of Health. The Texas A&M University Animal Use and Care Committee approved the protocol.
To determine if sialidase inhibitors could also reduce TGF-β1 levels in mice, mice were treated with bleomycin or saline, then injected daily with saline, DANA or oseltamivir starting at day 10 after bleomycin treatment, as described in Example 9. The mice were euthanized at day 21 and sections of lung tissue were stained for TGF-β1. Results are presented in FIG. 11A and are representative of results for three mice per group.

human PBMC [3] = assay: TGF-β1 accumulation by human PBMC (antibody staining and ELISA); format: cell-based
Protocol: To determine if sialidases might cause cells to accumulate intracellular and extracellular TGF-β1, human PBMC were cultured with sialidases in 96 well plates at 5×10^5 cells/ml and 200 μl/well in FibroLife serum-free medium for five days, then air dried. The levels of TGF-β1 in or on the cells was detected by staining with an antibody against TGF-β1. Photomicrographs were analyzed by counting stained cells (FIG. 7B) and quantifying staining intensity using ImageJ (FIG. 7C).
PBMC were cultured in 96 well plates at 5×10^5 cells/ml and 200 μl/well in FibroLife serum-free medium. When the cells were plated, recombinant human sialidases were added to final concentrations of 200 ng/ml, and DANA or oseltamivir were added to 3 μM. After 5 days, culture supernatants were analyzed using a TGF-β1 ELISA kit (R&D Systems).

[4] = system: human monocytes and lymphocytes; assay: sialidase levels in human PBMC cultured with IL-6 (flow cytometry); format: cell-based; conditions: 100 and 1000 pg/ml IL-6; three days
Protocol: To determine the effects of IL-6 on NEU3 production by human PBMC, PBMC were cultured as above in serum-free medium at 10^5 cells/ml with 2 ml/well in 6-well tissue culture plates (VWR) in the presence or absence of recombinant human interleukin-6 (IL-6) (BioLegend). After three days, the medium was carefully removed and the cells were washed with 1 ml of phosphate buffered saline (PBS) at room temperature. The cells were detached with 500 μl of Accutase cell detachment solution (VWR) per well for 6 minutes at 37° C. 1000 μl RPMI medium supplemented as described above with BCS, penicillin, streptomycin and glutamine was added per well to neutralize the Accutase. After pipetting the cell solutions 4 times, the cells were placed in sterile 1.7 ml microtubes (Genesee Scientific, San Diego, CA) and cells were collected by centrifugation at 5000×g for 10 minutes at 4° C. The pelleted cells were washed twice by resuspension with 1000 μl of ice-cold PBS and centrifugation. The cells were resuspended in 200 μl of ice-cold 2% (w/v) paraformaldehyde (EMS, Hatfield, PA), in PBS for 10 minutes on ice for fixation. 1000 μl of ice-cold PBS was added and cells were collected by centrifugation. The cells were resuspended in 200 μl of ice-cold 2% (w/v) bovine serum albumin (BSA) (VWR) in PBS (PBSA), for 10 minutes on ice for blocking. […]

[5] = recombinant human sialidase activity, 4MU-NANA cleavage at pH 6.4 and 7.0; format: biochemical
Protocol: In general, sialidase activity, including human sialidase activity, may be assessed at 37° C. in the presence of buffers ranging in pH from 3.7 to 7.4. Buffers with pH 3.7, 4.0, 4.6, 5.2 and 5.6 are 100 mM sodium acetate buffers. Buffers with pH 5.8, 6.4, 7.0 and 8.0 are based on Phosphate-Buffered Saline (PBS), with addition of 12 N HCl or 1 M NaOH to adjust the pH. Bovine serum albumin (BSA) is added to the buffer at a concentration of 100 ug/ml. Sialidase at a final concentration of 300 ng/ml is then added to the buffer. A sialidase inhibitor is then added to the mixture at a series of final concentrations. The reaction mixture is incubated for 30 minutes to allow the inhibitor to bind the sialidase. The fluorometric substrate 4MU-NANA [2′-(4-Methylumbelliferyl)-α-D-N-acetylneuraminic acid sodium salt hydrate is then added at a final concentration of 200 μM. Control reactions have no added inhibitor. The total volume of each reaction mixture is 0.1 ml. The cleavage of 4MU-NANA is then monitored by fluorescence every 20 minutes for 5 hours with excitation light at 360 nm and the fluorescence emission at 460 nm.
The fluorescence in the absence of sialidases is subtracted from all readings. The fluorescence of known concentrations of 4-methylumbelliferone is used to convert fluorescence to moles of product. […]

[6] = system: human pulmonary fibroblasts; assay: human pulmonary fibroblasts cultured with TGF-β1; format: cell-based; conditions: 10 ng/ml TGF-β1, three days
Protocol: (§1) TGF-β1 is strongly associated with fibrosis so its effects on sialidase expression were determined. Human lung adenocarcinoma cell line A549, human small airway epithelial cells, human pulmonary fibroblasts, and human immune cells were cultured with or without 10 ng/ml of recombinant active TGF-β1, which is a standard concentration used in tissue culture experiments. After three days for A549 cells, airway epithelial cells, and fibroblasts, or five days for immune cells, the cells were stained with antibodies against sialidases.

human PBMC [7] = assay: sialidase staining of human PBMC cultured with TGF-β1; format: cell-based; conditions: 10 ng/ml TGF-β1, five days
Protocol: as §1

[8] = system: human small airway epithelial cells; assay: sialidase staining of human small airway epithelial cells cultured with TGF-β1; format: cell-based; conditions: 10 ng/ml TGF-β1, three days
Protocol: as §1

A549 cells = assay: sialidase staining of A549 cells cultured with TGF-β1; format: cell-based, human; conditions: 10 ng/ml TGF-β1, three days
Protocol: as §1

CC(=O)N[C@H]1[C@H]([C@H](O)[C@H](O)CO)OC(C(=O)O)=C[C@@H]1O [Compound 1, N-Acetyl-2,3-dehydro-2-deoxyneuraminic acid, reference compound]
NEU4 potentiation of fibrocyte differentiation (human PBMC [1]; 10 μg/ml DANA with 100 ng/ml NEU4): inhibited the NEU4 potentiation of fibrocyte differentiation
fibrocyte formation / differentiation (human PBMC [1]): inhibited fibrocyte differentiation
IC50 (human NEU3): 61 µM
collagen deposition in the lungs (Sirius red) ([2]; 10 mg/kg daily i.p. starting 24 hours after bleomycin): reduced
collagen deposition in the lungs (Sirius red) ([2]; 10 mg/kg daily i.p. starting at day 10): reduced
TGF-β1 levels in lung tissue (staining) ([2]; daily injection starting at day 10): reduced TGF-β1 levels
effects of NEU2 and NEU3 on extracellular TGF-β1 (human PBMC [3]; inhibitor 3 μM, sialidases 200 ng/ml, 5 days, ELISA): blocked

IL-6: recombinant human interleukin-6 (IL-6) (BioLegend)
levels of NEU3 in human monocytes and lymphocytes [4]: significantly increased

NEU1: recombinant human NEU1 (sialidase 1), human neuraminidase 1
ability of SAP to inhibit fibrocyte formation (human PBMC [1]; 100 ng/ml sialidase with 1 μg/ml SAP): did not potentiate fibrocyte differentiation or counteract SAP
fibrocyte formation / differentiation (human PBMC [1]): did not potentiate fibrocyte differentiation
Sialidase activity ([5]; pH 6.4): 12.8 ± 1.3 μmole/min/mg protein
Sialidase activity ([5]; pH 7.0): 7.2 ± 0.9 μmole/min/mg protein
accumulation of TGF-β1 (human PBMC [3]; recombinant sialidase 200 ng/ml, five days): no significant effect

TGF-β1: recombinant active TGF-β1
proliferation of human pulmonary fibroblasts [6]: increased the proliferation
sialidase levels (antibody staining) ([6]; pulmonary fibroblasts): increase levels of NEU3
sialidase levels (antibody staining) (human PBMC [7]): increased levels of NEU2 and NEU3 in some cells
sialidase levels (antibody staining) [8]: increase levels of NEU3, and slightly increased levels of NEU1
sialidase levels (antibody staining) (A549 cells): increase levels of NEU3
